These results are taken from ChEMBL document CHEMBL1141524 (Bioorg Med Chem Lett, 2008).

Where “and” joins values, the source holds several entries; their conditions need not be identical. Equal entries are not always repeated. Non-standard residues stand in square brackets, D forms with d. Residues, ends and D or L forms follow the SMILES beside them. Gly(N-4-hydroxybenzyl) = O=C(O)CNCc1ccc(O)cc1

This test in a line: Displacement of [3H]neurotensin from pig NTR1. Details: species or system Sus scrofa.
As usually defined, the Ki is the equilibrium dissociation constant of an inhibitor or competing ligand from its target. Low values mean higher affinity, high ones lower affinity. In turn, `CC[C@H](C)[C@H](NC(=O)[C@H](Cc1ccc(O)cc1)N1CC=C[C@]2(CCCN2C(=O)[C@H](CCCNC(=N)N)NC(=O)[C@@H](N)CCCNC(=N)N)C1=O)C(=O)N[C@@H](CC(C)C)C(=O)O` displayed a Ki of 7400 nM.

The compound `CC[C@H](C)[C@H](NC(=O)[C@H](Cc1ccc(O)cc1)NC(=O)[C@@H]1CCCN1C(=O)[C@H](CCCCN)NC(=O)CNCCCCN)C(=O)N[C@@H](CC(C)C)C(=O)O` showed a Ki of 0.45 nM.

Turning to `CC[C@H](C)[C@H](NC(=O)[C@H](Cc1ccc(O)cc1)NC(=O)[C@@H]1CCCN1C(=O)[C@H](CCCCN)NC(=O)[C@@H](N)CCCCN)C(=O)N[C@@H](CC(C)C)C(=O)O`, the affinity corresponds to a Ki of 2.6 nM.

`CC[C@H](C)[C@H](NC(=O)[C@H](Cc1ccc(O)cc1)NC(=O)C[C@@H]1CCCN1C(=O)[C@H](CCCNC(=N)N)NC(=O)[C@@H](N)CCCNC(=N)N)C(=O)N[C@@H](CC(C)C)C(=O)O` gave a Ki of 28 nM.

On to `CC[C@H](C)[C@H](NC(=O)[C@H](Cc1ccc(O)cc1)NC(=O)[C@@H]1CCCN1C(=O)[C@H](CCCNC(=N)N)NC(=O)[C@@H](N)CCCNC(=N)N)C(=O)N[C@@H](CC(C)C)C(N)=O`, for which affinity was put at a Ki of 0.18 nM. Compared with the last compound, the Ki is about 160-fold lower.

Consider `CC[C@H](C)[C@H](NC(=O)[C@H](Cc1ccc(O)cc1)NC(=O)[C@@H]1CCCN1C(=O)[C@H](CCCNC(=N)N)NC(=O)CCC(=O)O)C(=O)N[C@@H](CC(C)C)C(=O)O`, for which the affinity, expressed as Ki, was 2300 nM.

In turn, `CC[C@@H](C)[C@H](NC(=O)[C@H](Cc1ccc(O)cc1)N1CC=CC[C@]2(CCCN2C(=O)[C@H](CCCNC(=N)N)NC(=O)[C@@H](N)CCCNC(=N)N)C1=O)C(=O)N[C@@H](CC(C)C)C(=O)O` yielded a Ki of 18000 nM. This Ki lies about 7.8-fold higher than the previous one.

On to `CC[C@H](C)[C@H](NC(=O)[C@H](Cc1ccc(O)cc1)N1CC/C=C\C[C@H]2CCN(C(=O)[C@H](CCCNC(=N)N)NC(=O)[C@@H](N)CCCNC(=N)N)[C@@H]2C1=O)C(=O)N[C@@H](CC(C)C)C(=O)O`, for which the Ki was 2400 nM and 8600 nM.

With `CC[C@H](C)[C@H](NC(=O)[C@H](Cc1ccc(O)cc1)NC(=O)[C@@H]1CCCN1C(=O)CN(CCCCN)C(=O)[C@@H](N)CCCCN)C(=O)N[C@@H](CC(C)C)C(=O)O`, the Ki came to 5.7 nM. This lies in the single-digit nanomolar range.

As for `CC[C@H](C)[C@H](NC(=O)[C@H](Cc1ccc(O)cc1)N1C(=O)NC(=O)C2(CCCN2C(=O)[C@H](CCCNC(=N)N)NC(=O)[C@@H](N)CCCNC(=N)N)C1=O)C(=O)N[C@@H](CC(C)C)C(=O)O` (some centres not stated), the affinity, expressed as Ki, was 10000 nM.

In turn, `CC[C@H](C)[C@H](NC(=O)[C@H](Cc1ccc(O)cc1)NC(=O)[C@@H]1CCCN1C(=O)[C@H](CCCNC(=N)N)NC(=O)C[N+](C)(C)C)C(=O)N[C@@H](CC(C)C)C(=O)O` had a Ki of 0.65 nM.

`CC[C@H](C)[C@H](NC(=O)CN(Cc1ccc(O)cc1)C(=O)[C@@H]1CCCN1C(=O)[C@H](CCCCN)NC(=O)[C@@H](N)CCCCN)C(=O)N[C@@H](CC(C)C)C(=O)O` (H-KKP[Gly(N-4-hydroxybenzyl)]IL-OH) displayed a Ki of 11000 nM.

Regarding `CC[C@H](C)[C@H](NC(=O)[C@H](Cc1ccc(O)cc1)N1C(=O)NC(=O)C2(CCCN2C(=O)[C@H](CCCNC(=N)N)NC(=O)[C@@H](N)CCCNC(=N)N)C1=O)C(=O)N[C@@H](CC(C)C)C(=O)O` (single isomer, unassigned; diastereomer 1), the Ki is 1400 nM.

In turn, H-DRPYIL-OH came in with a Ki of 150 nM. This Ki is about 9.3-fold lower than that of the compound before.

Compound H-RRAPYIL-OH returned a Ki of 9.6 nM. This Ki lies about 16-fold lower than the previous one.

With H-RRPYAIL-OH, the affinity corresponds to a Ki of 6.8 nM. This Ki and that of the compound before are within 1.5-fold of each other.

In turn, H-RRPYILA-OH yielded a Ki of 0.27 nM.
